Results taken from patent US20240390349A1, “DOSING REGIMEN OF CAPSID INHIBITOR” (priority 2023, published 2024).
“Also recorded” adds a separate entry of the source. Where two headings read alike, the source gives them in different places.

Tests used:
[1] = LEN plasma concentrations during oral bridging period, CALIBRATE (Phase 2, ARV-naive PWH); type: in vivo; details: for concentration at 1 day / concentration at 10 week / concentration at 20 week / concentration at 30 week: human, plasma, 300 mg
Text: (§1) The objective of this study was to evaluate the pharmacokinetics (PK) of LEN during oral bridging period (OBP) to assess the adequacy of 300-mg PO once-weekly (QW) regimen for maintaining therapeutic concentrations between missed SC LEN doses. During OBP, sparse PK samples were collected at the start of OBP and every ˜10-12 weeks (without regard to a prespecified time since dose) until SC LEN was resumed. LEN plasma concentrations were summarized during OBP in the CAPELLA (N=57) and CALIBRATE (N=82) studies.
This Example describes a Phase 2, randomized, open-label, active-controlled, multicenter study. Participants in Treatment Groups 1 and 2 required oral bridging following a clinical hold imposed by the Food & Drug Administration on injectable LEN as the SC injection of LEN could not be administered within the protocol visit window. An Oral Bridging visit was completed every 10 to 12 weeks. Participants had to have met all of the inclusion criteria and none of the exclusion criteria to be included in the study.
Participants in Treatment Groups 1 and 2 required oral weekly bridging when SC injection of LEN could not be administered due to the LEN clinical hold. • If 26 to 28 weeks elapsed since the last SC injection and if clinically appropriate to continue LEN, oral LEN 300 mg (1 tablet) once a week was started at oral bridging visits and continued weekly dosing on the same day of the week. • If more than 28 weeks elapsed since the last SC injection and if clinically appropriate to continue LEN, the oral lead-in was restarted at the oral bridging visit and the participant continued oral weekly dosing on the same day of the week, until SC LEN was administered, as shown in Table 9. • Participants continued receiving oral weekly LEN 300 mg until they received their next SC LEN injection. • Oral bridging visits were completed every 10-12 weeks. Additional visits during the oral weekly administration were conducted perd investigator's discretion.

[2] = Safety data from all completed and ongoing clinical studies of LEN; type: in vivo, human; details: oral doses up to 1800 mg
Protocol: Lenacapavir has been administered orally at doses up to 1800 mg. […] Oral LEN was administered without regard to food.

[3] = human, in vivo, sc
[4] = Safety during oral bridging period, CAPELLA; type: in vivo
clinical = details: human, in vivo
Text: as §1
Participants required oral weekly bridging if an SC injection of LEN could not be administered for any reason within the protocol visit window. If 26 to 28 weeks elapsed since the last SC injection, and if clinically appropriate to continue LEN, participants started oral LEN 300 mg (1 tablet) once a week at the oral bridging visit(s) and continued weekly dosing on the same day of the week. If more than 28 weeks elapsed since the last SC injection, and if clinically appropriate to continue LEN, participants restarted the oral lead-in at the oral bridging visits and continued oral weekly dosing on the same day of the week, until SC LEN was administered, as shown in Table 6.
Oral bridging day was calculated from first dose date of Oral Bridging.

[5] = system: HIV-1 capsid LEN resistance mutations; details: for Fold decrease in LEN susceptibility: 1 participant
Text: In HTE participants (Example 4), the resistance analysis population (RAP) during the oral bridging period included 9 participants (16%, 9/57) who met the criteria for resistance analysis, including 4 participants also present in the previous analysis. […];

[6] = SC LEN total, SC LEN resumption visit
[7] = Treatment Group 1, SC LEN resumption visit
[8] = Treatment Group 2, SC LEN resumption visit
[9] = po, Lower 90% CI of Concentration
[10] = po, Lower 90% CI of LEN concentration

## CC(C)(C#Cc1ccc(-c2ccc(Cl)c3c(NS(C)(=O)=O)nn(CC(F)(F)F)c23)c([C@H](Cc2cc(F)cc(F)c2)NC(=O)Cn2nc(C(F)(F)F)c3c2C(F)(F)[C@@H]2C[C@H]32)n1)S(C)(=O)=O [LEN, N—((S)-1-(3-(4-chloro-3-(methylsulfonamido)-1-(2,2,2-trifluoroethyl)-1H-indazol-7-yl)-6-(3-methyl-3-(methylsulfonyl)but-1-yn-1-yl)pyridin-2-yl)-2-(3,5-difluorophenyl)ethyl)-2-((3bS,4aR)-5,5-difluoro-3-(trifluoromethyl)-3b,4,4a,5-tetrahydro-1H-cyclopropa [3,4]cyclopenta [1,2-c]pyrazol-1-yl) acetamide]
[1]; SC LEN total (Groups 1+2), oral LEN 300 mg QW, Day 1
  Mean LEN plasma concentration: 27.8 (47.4) ng/mL
[1]; [6]
  Lower 90% CI of Concentration: 43.6 ng/mL
  Mean LEN plasma concentration: 50.7 ng/mL
[1]; SC LEN total, Week 10
  Mean LEN plasma concentration: 54.9 (70.8) ng/mL
[1]; SC LEN total, Week 20
  Mean LEN plasma concentration: 52.5 (77.7) ng/mL
[1]; SC LEN total, Week 30
  Mean LEN plasma concentration: 50.1 (62.3) ng/mL
[1]; Treatment Group 1 (SC LEN + [DVY→TAF]), Day 1
  Mean LEN plasma concentration: 28.8 (47.7) ng/mL
[1]; [7]
  Lower 90% CI of Concentration: 38.6 ng/mL
  Mean LEN plasma concentration: 49.4 ng/mL
[1]; Treatment Group 1, Week 10
  Mean LEN plasma concentration: 50.9 (67.0) ng/mL
[1]; Treatment Group 1, Week 20
  Mean LEN plasma concentration: 53.1 (84.5) ng/mL
[1]; Treatment Group 1, Week 30
  Mean LEN plasma concentration: 43.7 (74.7) ng/mL
[1]; Treatment Group 2 (SC LEN + [DVY→BIC]), Day 1
  Mean LEN plasma concentration: 26.7 (47.3) ng/mL
[1]; [8]
  Lower 90% CI of Concentration: 42.7 ng/mL
  Mean LEN plasma concentration: 52.2 ng/mL
[1]; Treatment Group 2, Week 10
  Mean LEN plasma concentration: 59.3 (73.6) ng/mL
[1]; Treatment Group 2, Week 20
  Mean LEN plasma concentration: 51.9 (70.2) ng/mL
[1]; Treatment Group 2, Week 30
  Mean LEN plasma concentration: 56.5 (62.5) ng/mL
[1]; oral, SC LEN total (Groups 1+2), oral LEN 300 mg QW, Day 1, read-out: Mean LEN plasma concentration
  concentration at 1 day: 27.8 ng/mL
[1]; oral, Treatment Group 1, Day 1, read-out: Lower 90% CI of Concentration
  concentration at 1 day: 25.2 ng/mL
[1]; oral, Treatment Group 1, Week 10, read-out: Lower 90% CI of Concentration
  concentration at 10 week: 41.1 ng/mL
[1]; oral, Treatment Group 1, Week 10, read-out: Mean LEN plasma concentration
  concentration at 10 week: 50.9 ng/mL
[1]; oral, Treatment Group 1, Week 20, read-out: Lower 90% CI of Concentration
  concentration at 20 week: 39.6 ng/mL
[1]; oral, Treatment Group 1, Week 20, read-out: Mean LEN plasma concentration
  concentration at 20 week: 53.1 ng/mL
[1]; oral, Treatment Group 1, Week 30, read-out: Mean LEN plasma concentration
  concentration at 30 week: 43.7 ng/mL
[1]; oral, Treatment Group 2, Day 1, read-out: Lower 90% CI of Concentration
  concentration at 1 day: 23 ng/mL
[1]; oral, Treatment Group 2, Week 10, read-out: Lower 90% CI of Concentration
  concentration at 10 week: 46.4 ng/mL
[1]; oral, Treatment Group 2, Week 10, read-out: Mean LEN plasma concentration
  concentration at 10 week: 59.3 ng/mL
[1]; oral, Treatment Group 2, Week 20, read-out: Lower 90% CI of Concentration
  concentration at 20 week: 40.2 ng/mL
[1]; oral, Treatment Group 2, Week 20, read-out: Mean LEN plasma concentration
  concentration at 20 week: 51.9 ng/mL
[1]; oral, Treatment Group 2, Week 30, read-out: Mean LEN plasma concentration
  concentration at 30 week: 56.5 ng/mL
[1]; sc, SC LEN total, Day 1, read-out: Lower 90% CI of Concentration
  concentration at 1 day: 25.3 ng/mL
[1]; sc, SC LEN total, Week 10, read-out: Lower 90% CI of Concentration
  concentration at 10 week: 47.1 ng/mL
[1]; sc, SC LEN total, Week 10, read-out: Mean LEN plasma concentration
  concentration at 10 week: 54.9 ng/mL
[1]; sc, SC LEN total, Week 20, read-out: Lower 90% CI of Concentration
  concentration at 20 week: 43.7 ng/mL
[1]; sc, SC LEN total, Week 20, read-out: Mean LEN plasma concentration
  concentration at 20 week: 52.5 ng/mL
[1]; sc, SC LEN total, Week 30, read-out: Lower 90% CI of Concentration
  concentration at 30 week: 24.4 ng/mL
[1]; sc, SC LEN total, Week 30, read-out: Mean LEN plasma concentration
  concentration at 30 week: 50.1 ng/mL
[1]; sc, Treatment Group 1 (SC LEN + [DVY→TAF]), Day 1, read-out: Mean LEN plasma concentration
  concentration at 1 day: 28.8 ng/mL
[1]; sc, Treatment Group 2 (SC LEN + [DVY→BIC]), Day 1, read-out: Mean LEN plasma concentration
  concentration at 1 day: 26.7 ng/mL
[2]
  Overall safety and tolerability: generally safe and well tolerated at the intended exposures
[3]
  Lower 90% CI of LEN predose concentration: 56.2 ng/mL
  Mean LEN predose plasma concentration: 74.4 ng/mL
[4]
  Discontinuation of study drug due to a TEAE: No participant discontinued study drug due to a TEAE
  Participants with Grade 2 or higher TEAEs: 26.3%
  Treatment-related asthenia: 1.8%
  Treatment-related diarrhea: 3.5%
  Treatment-related nausea: 1.8%
[4]; 1 participant, considered unrelated to study drug
  Grade 5 TEAE of death: 1.8%
[4]; all Grade 1
  Participants with treatment-related TEAEs: 3.5%
[4]; one participant
  AE of death leading to discontinuation of the study: 1.8%
[4]; oral bridging period
  Changes from baseline in hematology and clinical chemistry: no clinically relevant changes from baseline in hematology and clinical chemistry parameters; also recorded: no clinically relevant changes from baseline in median values for hematology and clinical chemistry
  Changes from baseline in vital signs: no clinically relevant changes from baseline in vital signs
  Overall safety and tolerability of oral LEN: generally safe and well tolerated
  Participants with Grade 1 TEAEs: 22.8%
  Participants with Grade 2 TEAEs: 24.6%
  TEAE COVID-19: 7.0%
  TEAE cough: 5.3%
  TEAE diarrhea: 5.3%
  TEAE upper respiratory tract infection: 5.3%
[4]; oral bridging period, 57 participants
  Participants who experienced TEAEs: 49.1%
clinical
  Mean LEN concentration and lower bound 90% CI versus efficacy target IQ4: > 15.5 ng/mL
clinical; 10 week
  90% CI of mean LEN concentration: 66.1, 86.3
clinical; 20 week
  90% CI of mean LEN concentration: 50.4, 99.3
clinical; 30 week
  90% CI of mean LEN concentration: 29.9, 53.5
clinical; 1 day
  90% CI of mean LEN concentration: 40.3, 51.9
clinical; po, Concentration, Mean (% CV)
  concentration at 10 day: 76.2 ng/mL
  concentration at 20 day: 74.8 ng/mL
clinical; [9]
  concentration at 10 day: 66.1 ng/mL
  concentration at 20 day: 50.4 ng/mL
  concentration at 30 day: 29.9 ng/mL
clinical; [10]
  concentration at 10 week: 66.1 ng/mL
  concentration at 20 week: 50.4 ng/mL
  concentration at 30 week: 29.9 ng/mL
  concentration at 1 day: 40.3 ng/mL
[5]; K70N+N74K
  Fold decrease in LEN susceptibility: 289 fold
[5]; Q67H or Q67Q/H, 3 participants
  Mean fold decrease in LEN susceptibility: 5.6 fold
[5]; Q67H+K70R+T107T/N
  Fold decrease in LEN susceptibility: 393 fold
